Key:
VCAM-1 = experiment: In Vitro VCAM-1 Assay (TNF-α stimulated HAEC or HPAEC, cell ELISA); format: cell-based, human; conditions: Homo sapiens, 16 h, TNF-α (1 ng/ml) stimulated HAEC or HPAEC, approximately 16 hours
Summary of the method: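 Primary human aortic or pulmonary endothelial cells (below passage 9) stimulated with TNF-α (1 ng/ml) plus compound (four concentrations, ≤0.25% DMSO) for about 16 h. Surface VCAM-1 detected by cell ELISA (HRP/TMB, OD 450 nm). IC50 taken as the concentration giving 50% inhibition of the TNF-α-only response.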

Balb/C mice = experiment: Asthma Protocol (ovalbumin sensitized and challenged mice, bronchoaveolar lavage); format: in vivo, mouse; conditions: sc, daily dosing at 100 mg/kg from day 0–13, lavage fluid
Description: Balb/C mice (6–8 weeks old) are sensitized to ovalbumin (ova) (8 ug ova absorbed in 3.3 mg Alum inject) on days 0 and 5. On day 12, the mice were aerosol challenged with 0.5% ovalbumin dissolved in sterile saline for 1 hr in the AM, and then again in the PM (at least 4 hr apart). On day 14, the mice were anesthetized with ketamine/xylazine/acepromazine cocktail, exsanguinated, and then euthanized. Following blood collection, bronchoaveolar lavage was performed on each animal. Total cell counts were conducted on the lavage fluid, which was subsequently diluted with cell media 1:1. Slides of the lavage fluid were made by spinning the samples with a cytospin centrifuge. Slides were airdried and stained with x. Cell differentials of the lavage fluid were completed at the conclusion of the study. All compounds except Example 2 were well tolerated with no body weight loss throughout the course of the study. Statistical analysis involved ANOVA and Tukey-Kramer post hoc tests. Compounds were administered except where noted by subcutaneous injection once daily from day 0–13. The formulations used contained various mixtures of the following excipients (pharmasolve, cremophor RH 40, tween 80, PEG 300). See Biological Table 3

Structure (SMILES) | melting point | IC50 (VCAM-1) | % Inhibition (Balb/C mice)
COc1cc(OC)c(-c2cc3ccccc3n2C(=O)OC(C)(C)C)cc1/C=C/C(=O)c1ccc(C(=O)O)cc1 [Example 36, 2-{5-[3-(4-Carboxy-phenyl)-3-oxo-E-propenyl]-2,4-dimethoxy-phenyl}-indole-1-carboxylic acid tert-butyl ester] | 182 to 183 °C | < 5 µM | 71%
COc1cc(OC)c(-c2cn[nH]c2)cc1/C=C/C(=O)c1ccc(C(=O)O)cc1 [Example 74, 4-{3E-[2,4-Dimethoxy-5-(1H-pyrazol-4-yl)-phenyl]-acryloyl}-benzoic acid] | > 250 °C | > 10 µM | –
COc1cc(OC)c(-c2nn[nH]n2)cc1/C=C/C(=O)c1ccc(C(=O)O)cc1 [Example 75, 4-{3E-[2,4-Dimethoxy-5-(2H-tetrazol-5-yl)-phenyl]-acryloyl}-benzoic acid] | 218 °C (dec.) | > 10 µM | –
COc1cc(OC)c(-c2nc3cccnc3[nH]2)cc1/C=C/C(=O)c1ccc(C(=O)O)cc1 [Example 76, 4-{3E-[5-(3H-Imidazo[4,5-b]pyridin-2-yl)-2,4-dimethoxy-phenyl]-acryloyl}-benzoic acid] | 222 to 224 °C | > 10 µM | –
COc1cc(OC)c(-c2cccs2)cc1/C=C/C(=O)c1ccc(-c2nn[nH]n2)cc1 [Example 78, 3E-(2,4-Dimethoxy-5-thiophen-2-yl-phenyl)-1-[4-(2H-tetrazol-5-yl)-phenyl]-propenone] | 235 °C (dec.) | < 10 µM | –
COc1cc(OCCN2CCOCC2)c(/C=C/C(=O)c2ccc(S(N)(=O)=O)cc2)cc1-c1cccs1 [Example 81, 4-{3E-[4-Methoxy-2-(2-morpholin-4-yl-ethoxy)-5-thiophen-2-yl-phenyl]-acryloyl}-benzenesulfonamide] | 186 to 188 °C | < 1 µM | –
COc1cc(OC)c(-c2cc3ccccc3n2C(=O)OC(C)(C)C)cc1/C=C/C(=O)c1ccc(S(N)(=O)=O)cc1 [Example 83, 2-{2,4-Dimethoxy-5-[3-oxo-3-(4-aminosulfonyl-phenyl)-E-propenyl]-phenyl}-indole-1-carboxylic acid tert-butyl ester] | 120 to 122 °C | < 1 µM | –
COc1cc(OC)c(-c2cc3ccccc3[nH]2)cc1/C=C/C(=O)c1ccc(S(N)(=O)=O)cc1 [Example 84, 4-{3E-[5-(1H-Indol-2-yl)-2,4-dimethoxy-phenyl]-acryloyl}-benzenesulfonamide] | 185 to 187 °C | < 5 µM | –
COc1cc(OCCCN2CCOCC2)c(/C=C/C(=O)c2ccc(S(N)(=O)=O)cc2)cc1-c1cccs1 [Example 85, 4-{3E-[4-Methoxy-2-(3-morpholin-4-yl-propoxy)-5-thiophen-2-yl-phenyl]-acryloyl}-benzenesulfonamide] | 193 to 196 °C | < 1 µM | –
COc1cc(OC)c(-c2cc3ccccc3s2)cc1/C=C/C(=O)c1ccc(S(=O)(=O)NC(=O)C(C)C)cc1 [Example 87, 4-[3E-(5-Benzo[b]thiophen-2-yl-2,4-dimethoxy-phenyl)-acryloyl]-N-isobutyryl-benzenesulfonamide] | > 240 °C (dec.) | < 1 µM | –
COc1cc(OC)c(-c2cc3ccccc3s2)cc1/C=C/C(=O)c1ccc(C(=O)NCC(F)(F)F)cc1 [Example 91, 4-[3E-(5-Benzo[b]thiophen-2-yl-2,4-dimethoxy-phenyl)-acryloyl]-N-(2,2,2-trifluoro-ethyl)-benzamide] | 215 to 217 °C | < 5 µM | –
COc1cc(OCCN2CCOCC2)c(/C=C/C(=O)c2ccc(C(N)=O)cc2)cc1-c1cccs1 [Example 92, 4-{3E-[4-Methoxy-2-(2-morpholin-4-yl-ethoxy)-5-thiophen-2-yl-phenyl]-acryloyl}-benzamide] | 183 to 184 °C | < 1 µM | –
COc1cc(OC)c(-c2cc3ccccc3s2)cc1/C=C/C(=O)c1ccc(C(N)=O)cc1 [Example 93, 4-[3E-(5-Benzo[b]thiophen-2-yl-2,4-dimethoxy-phenyl)-acryloyl]-benzamide] | 240 to 241 °C | < 1 µM | –
COc1cc(OCCCN2CCOCC2)c(/C=C/C(=O)c2ccc(C(N)=O)cc2)cc1-c1cccs1 [Example 94, 4-{3E-[4-Methoxy-2-(3-morpholin4-yl-propoxy)-5-thiophen-2-yl-phenyl]-acryloyl}-benzamide] | 81 to 83 °C | < 1 µM | –
COc1cc(OC)c(-c2cc3ccccc3s2)cc1/C=C/C(=O)c1ccc(C(=O)NC(C)=O)cc1 [Example 95, N-Acetyl-4-[3E-(5-benzo[b]thiophen-2-yl-2,4-dimethoxy-phenyl)-acryloyl]-benzamide] | 228 to 229 °C | < 1 µM | –
COc1cc(OC)c(-c2cc3ccccc3s2)cc1/C=C/C(=O)c1ccc(C(=O)NC(=O)C(C)C)cc1 [Example 96, 4-[3E-(5-Benzo[b]thiophen-2-yl-2,4-dimethoxy-phenyl)-acryloyl]-N-isobutyryl-benzamide] | 208 to 209 °C | < 5 µM | –
COc1cc(OC(C)(C)C(=O)O)c(-c2cccs2)cc1/C=C/C(=O)c1ccc(NS(C)(=O)=O)cc1 [Example 100, 2-{4-[3-(4-Methanesulfonylamino-phenyl)-3-oxo-E-propenyl]-5-methoxy-2-thiophen-2-yl-phenoxy}-2-methyl-propionic acid] | 181 to 183 °C | > 10 µM | –
COc1cc(OC(C)(C)C(=O)O)c(-c2cccs2)cc1/C=C/C(=O)c1ccc(N(C)S(C)(=O)=O)cc1 [Example 101, 2-(4-{3-[4-(Methanesulfonyl-methyl-amino)-phenyl]-3-oxo-E-propenyl}-5-methoxy-2-thiophen-2-yl-phenoxy)-2-methyl-propionic acid] | 197 to 200 °C | > 10 µM | –
COc1cc(OC)c(-c2cc3ccccc3s2)cc1/C=C/C(=O)c1ccc(Nc2c(N)c(=O)c2=O)cc1 [Example 102, 3-Amino-4-{4-[3E-(5-benzo[b]thiophen-2-yl-2,4-dimethoxy-phenyl)-acryloyl]-phenylamino}-cyclobut-3-ene-1,2-dione] | > 260 °C | > 10 µM | –
COc1cc(OCC(CO)CO)c(-c2cccs2)cc1/C=C/C(=O)c1ccc(S(N)(=O)=O)cc1 [Example 106, 4-{3E-[4-(3-Hydroxy-2-hydroxymethyl-propoxy)-2-methoxy-5-thiophen-2-yl-phenyl]-acryloyl}-benzenesulfonamide] | 191 to 192 °C | < 10 µM | –
COc1cc(OC)c(-c2cc3ccccc3s2)cc1/C=C/C(=O)c1ccc(C(C)=O)cc1 [Example 108, 1-(4-Acetyl-phenyl)-3E-(5-benzo[b]thiophen-2-yl-2,4-dimethoxy-phenyl)-propenone] | 165 to 167 °C | < 10 µM | –
COc1cc(OC)c(-c2nncn2CC(C)C)cc1/C=C/C(=O)c1ccc(C(=O)O)cc1 [Example 110, 4-{3E-[5-(4-Isobutyl-4H-[1,2,4]triazol-3-yl)-2,4-dimethoxy-phenyl]-acryloyl}-benzoic acid] | > 240 °C (dec.) | > 10 µM | –
COc1cc(OC)c(-c2c[nH]c(C3CC3)n2)cc1/C=C/C(=O)c1ccc(S(N)(=O)=O)cc1 [Example 111, 4-{3E-[5-(2-Cyclopropyl-1H-imidazol-4-yl)-2,4-dimethoxy-phenyl]-acryloyl}-benzenesulfonamide] | 156 to 160 °C | > 10 µM | –
COc1cc(OCc2nc3ccccc3[nH]2)c(/C=C/C(=O)c2ccc(S(N)(=O)=O)cc2)cc1-c1cccs1 [Example 113, 4-{3E-[2-(1H-Benzoimidazol-2-ylmethoxy)-4-methoxy-5-thiophen-2-yl-phenyl]-acryloyl}-benzenesulfonamide] | 235 to 237 °C (dec.) | < 5 µM | –
COc1cc(OCc2ccccn2)c(/C=C/C(=O)c2ccc(S(N)(=O)=O)cc2)cc1-c1cccs1 [Example 114, 4-{3E-[4-Methoxy-2-(pyridin-2-ylmethoxy)-5-thiophen-2-yl-phenyl]-acryloyl}-benzenesulfonamide] | 188 to 189 °C | < 5 µM | –
COc1cc(OCn2nnc3ccccc32)c(/C=C/C(=O)c2ccc(S(N)(=O)=O)cc2)cc1-c1cccs1 [Example 115, 4-{3E-[2-(Benzotriazol-1-ylmethoxy)-4-methoxy-5-thiophen-2-yl-phenyl]-acryloyl}-benzenesulfonamide] | 255 °C (dec.) | < 5 µM | –
COc1cc(OC)c(-c2cc3ccccc3n2C)cc1/C=C/C(=O)c1ccc(S(N)(=O)=O)cc1 [Example 117, 4-{3E-[2,4-Dimethoxy-5-(1-methyl-1H-indol-2-yl)-phenyl]-acryloyl}-benzenesulfonamide] | 148 to 150 °C | < 5 µM | –
COC(=O)c1ccc(C(=O)/C=C/c2cc(-c3cc4ccccc4s3)c(OC)cc2OC)cc1 [Example 118, 4-[3E-(5-Benzo[b]thiophen-2-yl-2,4-dimethoxy-phenyl)-acryloyl]-benzoic acid methyl ester] | 149 to 151 °C | < 10 µM | –
